Measurements as given in patent US20210345614A1, “APPLICATION OF 7-CARBOXYBENZO[1,2,3]THIADIAZOLE AMIDES AS PLANT STIMULANTS” (ADAM MICKIEWICZ UNIVERSITY FOUNDATION, priority 2015, published 2021).
Values joined by “and” are separate entries in the source; they are usually repeats but may differ in a detail not shown here. Identical values can stand only once.

Legend:
[1] = test system: tobacco mosaic virus (TMV); assay: BTHWA effect on the infectivity of tobacco mosaic virus (virus pre-incubated with compound, necrotic spots on tobacco leaves); format: in vivo, tobacco cv. xanthi; conditions: TMV approx. 3 μg/ml incubated 30 min with BTHWA 40 mg/L 1:1; after 5 days
Procedure: (§1) Purified tobacco mosaic virus (TMV) at a concentration of approx. 3 μg/ml was mixed with N-methyl-N-methoxy-7-carboxybenzo[1,2,3]thiadiazole amide (BTHWA) formulation (concentration 40 mg/L) in a 1:1 volume ratio and incubated for 30 min at room temperature (treated leaves). The control was TMV incubated in water. Both virus suspensions were used to mechanically infect tobacco leaves cv. xanthi. Local necrotic spots (hypersensitivity, local infection) produced on the tobacco leaves were measured.

[2] = test system: Pseudomonas syringe pv. tomato; assay: BTHWA effect on the infectivity of bacteria, growth in Mueller-Hinton broth; format: cell-based; conditions: BTHWA 40 mg/L formulation, after 2 days
Procedure: as §1
The procedure as described in Example 1 was followed, however, the bacterium Pseudomonas syringe pv. tomato was used. The suspensions formed were incubated in a Mueller-Hinton broth nutrition medium. After 2 days, the concentration of bacteria on the treated plates was compared to the control.

powdery mildew fungi = assay: BTHWA effect on the infectivity of fungi, growth in nutrition medium; format: cell-based; conditions: BTHWA 40 mg/L formulation, after 2 days
Procedure: as §1
The procedure as described in Example 1 was followed, however, a powdery mildew fungi was used, which was then incubated in a nutrition medium.

[3] = test system: Pseudomonas syringe pv. tomato; assay: Protection of tomato against bacterial infection of Pseudomonas syringe pv. tomato; format: in vivo, Tomato Lycopersicon esculentum Mill; conditions: sprayed twice, 20 mg/L
Procedure: Tomato plants in the phase of first pair of developed true leaves were watered twice with BTHWA at a concentration of 20 mg/L, at a weekly interval. Control tomato plants were treated with water only. One week after the second treatment Pseudomonas syringe pv. tomato bacterial suspension at a concentration of 10^5 CFU/cm^3 was introduced to the leaf using an insulin syringe (without a needle). Bacterial suspension was prepared from two-day Pseudomonas syringe pv. tomato culture on solid medium. Protection against biotic stress was evaluated based on the amount of bacterial growth in the leaves at the point of introduction followed by the formation of necrotic spots, and this compared with the control. […] The procedure as described in Example 16 was followed, however, the plants were sprayed. BTHWA at the concentration of 20 mg/L was applied twice by spraying.

Radish seeds = assay: Germination of radish seeds; format: in vivo; conditions: seeds in 10 mg/L solution, after 2 days
Procedure: Radish seeds were placed in water-containing solution of BTHWA at a concentration of 10 mg/L or water only (control samples).

[4] = test system: Tobacco plants (Nicotiana tabacum) var. xanthi; assay: Protection against abiotic stress in tobacco caused by herbicide (glyphosate); format: in vivo; conditions: watered twice 20 mg/l; glyphosate 0.005% aqueous solution; 10 days after herbicide application
Procedure: Tobacco plants (Nicotiana tabacum) var. […] stage of 3 developed leaves were watered twice with solution of BTHWA at concentration of 20 mg/l, at a weekly interval. Control […] plants were treated with water only.

Tobacco plants = assay: Protection against abiotic stress in tobacco caused by lack of water; format: in vivo; conditions: watered twice 20 mg/L; 10 days after cessation of watering
Procedure: Tobacco plants at the stage of 3 developed leaves were watered twice with BTHWA at concentration of 20 mg/L, at a weekly intervals. Control […] plants were watered with water only. A week after the second treatment, plants were exposed to a stress factor in the form of lack of access to water.

potato virus Y (PVY) = assay: Field experiment on potato, PVY infection of tubers by DAS ELISA; format: in vivo, potato variety Altesse; conditions: for % of tubes infected by PVY Virus: field
Rhynchosporium secalis = assay: Field test on barley, fungal infection by Rhynchosporium secalis; format: in vivo, Hordeum vulgare (spring); conditions: Example 28: BTHWA 20 mg/L with Trend 90 EC, six foliar applications at 10 days intervals; harvested 13 days after last treatment
Procedure: The test was on a variety of barley Hordeum vulgare (spring). There were six applications of the active substance solution. The study was conducted on fields of about 25 m^2 in quadruplicate for each combination tested.

[5] = test system: tobacco mosaic virus (TMV); assay: TMV-tobacco cv. xanthi model, protection against biotic stress (necrotic spots); format: in vivo, Nicotiana tabacum cv. xanthi; conditions: sprayed twice at weekly intervals with 10 mg/L
[6] = test system: Nicotiana tabacum var. xanthi; assay: Phytotoxicity of BTHWA spray on tobacco under greenhouse conditions; conditions: 5 to 1000 mg/L tested
Procedure: Experiments were carried out on a model tobacco plant (Nicotiana tabacum var. xanthi) under greenhouse conditions, where the plant was in the three-developed leaves phase. The plants were sprayed (with full coverage of the leaves surface) with a solution of a working fluid having a concentration of active substance (BTHWA) starting from 5 and ending at 1000 mg/L The phytotoxicity of the BTHWA was evaluated.

## CON(C)C(=O)c1cccc2nnsc12 [BTHWA, N-methyl-N-methoxy-7-carboxybenzo[1,2,3]thiadiazole amide]
[1]
  difference in number of necrotic spots between control and treated leaves: 12%
[2]
  growth differences between the control medium and the treated medium: < 5%
Powdery mildew fungi
  differences in fungal growth on the treated plates and control: < 5%
[3]
  protection against the effects of bacterial infection: fully protecting plants against the effects of bacterial infection
Radish seeds
  increase of the mass of the germ in comparison to control: 5%
[4]
  lesser negative effect of the herbicide compared to the control: 26%
Tobacco plants
  total mass of the untreated plants lower than the weight of the treated plants: 13%
Potato virus Y (PVY); foliar application 20 mg/L of operational fluid, field conditions
  reduction in the amount of PVY virus occurrence in the treated plants: ~50%
Potato virus Y (PVY); foliar application 20 mg/L with mineral oil adjuvant, 7 days intervals
  % of tubes infected by PVY Virus: 44.2%
Potato virus Y (PVY); tuber dressing 20 mg/L + foliar application 20 mg/L
  % of tubes infected by PVY Virus: 40.7%
Rhynchosporium secalis
  % of infection: 10% and 10.63%
[5]
  protection against biotic stress caused by TMV infection: protected the treated leaves against biotic stress
[6]
  concentration in the working fluid at which phytotoxic effects were observed (yellowing of the leaves, necrosis of leaves, growth inhibition): above 100 mg/L
